SMILES strings stand for the structures.

The species named for assay [1] is Rattus norvegicus. The experiment in a line: Alpha-1-adrenoceptor blocking activity by antagonism of (-)-norepinephrine induced contractions of epididymal portion of rat vas deferens. It is filed as functional.
The nature of assay [2]: Inhibition of ADP induced human blood platelet aggregation. The class given is functional.
Assay [3] concerns the target Adrenergic receptor alpha (Rattus norvegicus) (UniProt P15823+P23944+P43140+P22086+P19328+P22909). The experiment in a line: Ratio of IC50 towards alpha1 to alpha-2 receptors of rat vas deferens. The class given is protein assay.
The nature of assay [4]: Inhibition of epinephrine induced human blood platelet aggregation. It is filed as functional.
The target in assay [5] is T1, Adrenergic receptor alpha-2 (Rattus norvegicus, UniProt P22086+P19328+P22909).
T1 sequence (P22086 whole entry): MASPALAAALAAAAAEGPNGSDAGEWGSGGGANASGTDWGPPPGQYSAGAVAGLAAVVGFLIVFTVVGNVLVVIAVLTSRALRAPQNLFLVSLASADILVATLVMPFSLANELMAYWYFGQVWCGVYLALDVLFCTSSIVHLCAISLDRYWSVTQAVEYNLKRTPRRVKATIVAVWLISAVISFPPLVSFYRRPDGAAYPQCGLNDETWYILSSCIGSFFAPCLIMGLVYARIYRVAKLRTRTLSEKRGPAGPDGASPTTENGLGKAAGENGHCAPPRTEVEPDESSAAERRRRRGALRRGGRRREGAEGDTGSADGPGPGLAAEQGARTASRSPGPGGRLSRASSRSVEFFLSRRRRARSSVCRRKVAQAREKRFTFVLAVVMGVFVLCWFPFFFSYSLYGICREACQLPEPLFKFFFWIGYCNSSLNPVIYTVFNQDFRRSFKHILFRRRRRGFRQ
T1 sequence (P19328 whole entry): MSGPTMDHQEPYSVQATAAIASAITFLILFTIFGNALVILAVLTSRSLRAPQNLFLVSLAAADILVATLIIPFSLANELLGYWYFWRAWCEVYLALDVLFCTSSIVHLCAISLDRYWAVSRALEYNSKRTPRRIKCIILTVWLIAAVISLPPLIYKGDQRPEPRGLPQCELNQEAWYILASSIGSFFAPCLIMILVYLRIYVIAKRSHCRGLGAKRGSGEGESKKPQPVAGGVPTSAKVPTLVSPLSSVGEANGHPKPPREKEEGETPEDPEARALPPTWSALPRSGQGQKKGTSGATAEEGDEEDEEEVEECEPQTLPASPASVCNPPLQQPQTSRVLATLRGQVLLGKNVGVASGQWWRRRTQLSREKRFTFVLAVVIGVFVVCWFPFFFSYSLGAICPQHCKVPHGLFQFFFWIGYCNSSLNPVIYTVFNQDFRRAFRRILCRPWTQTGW
T1 sequence (P22909 whole entry): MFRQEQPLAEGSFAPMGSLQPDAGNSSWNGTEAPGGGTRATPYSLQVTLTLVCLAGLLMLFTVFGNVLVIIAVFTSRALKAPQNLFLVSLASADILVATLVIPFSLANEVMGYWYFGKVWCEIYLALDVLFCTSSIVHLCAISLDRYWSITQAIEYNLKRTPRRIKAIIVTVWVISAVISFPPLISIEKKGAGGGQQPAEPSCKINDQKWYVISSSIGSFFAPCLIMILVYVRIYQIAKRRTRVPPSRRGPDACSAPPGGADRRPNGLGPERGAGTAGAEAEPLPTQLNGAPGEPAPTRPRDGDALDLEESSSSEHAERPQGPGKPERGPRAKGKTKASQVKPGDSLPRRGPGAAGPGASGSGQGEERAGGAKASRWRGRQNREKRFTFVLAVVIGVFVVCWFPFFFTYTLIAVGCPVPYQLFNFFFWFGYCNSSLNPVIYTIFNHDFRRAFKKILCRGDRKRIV
The experiment in a line: Alpha-2 adrenergic receptor blocking activity by antagonism of clonidine induced depression of twitch response of field stimulated prostatic portion of rat vas deferens. The class given is functional, tissue-based.

The species entered for assay [6] is Rattus norvegicus. In words: Alpha-1-adrenoceptor blocking activity by antagonism of (-)-norepinephrine induced contractions of epididymal portion of rat vas deferens; Inactive up to a concentration of 20 uM. The class given is functional.

One may read the IC50 as the concentration at which inhibition is half-maximal. A lower IC50 goes with greater potency. For `COc1ccccc1CNCCCCCCCCCCCNCCSSCCNCCCCCCCCCCCNCc1ccccc1OC`, the IC50 in the assay filed under Rattus norvegicus [1] stood at 51.3 µM; in assay [2], 2.1 µM; in assay [4] it was 1.7 µM. Moreover, the Selectivity in assay [3] was under 2.57.
For `COc1ccccc1CNCCCCCCCCNCCSSCCNCCCCCCCCNCc1ccccc1OC`, the IC50 in the assay listed under Rattus norvegicus [1] stood at 98.5 µM; in assay [2] it was 22.7 µM; in assay [5], 1.22 µM; in assay [4] it was 5.4 µM. Further, the Selectivity in assay [3] is 80.7.
As for `COc1ccccc1CNCCCCCCCCCCCCNCCSSCCNCCCCCCCCCCCCNCc1ccccc1OC`, the results for the IC50 (in the assay listed under Rattus norvegicus [1]; in assay [2]; in assay [4]) were 8.23 µM, 2.1 µM and 1.7 µM, respectively. Moreover, in assay [3], the Selectivity is under 0.41.
On the same counts, the results for `COc1ccccc1CNCCCCCCCCCCNCCSSCCNCCCCCCCCCCNCc1ccccc1OC` are 62.8 µM, 2.8 µM, 2.2 µM and under 3.14.
For the compound `COc1ccccc1CNCCCNCCCCCCCCNCCSSCCNCCCCCCCCNCCCNCc1ccccc1OC.Cl.O`, the IC50 result in the assay filed under Rattus norvegicus [6] is “Not Active”.
Turning to `COc1ccccc1CNCCCCCNCCSSCCNCCCCCNCc1ccccc1OC`, the IC50 in the assay filed under Rattus norvegicus [1] turned out to be 55.8 µM; in assay [2], 87 µM; in assay [5], 25.8 µM; in assay [4], 46 µM. The Selectivity in assay [3] was 2.16.
`COc1ccccc1CNCCCCCCNCCSSCCNCCCCCCNCc1ccccc1OC` [BENEXTRAMINE]: the IC50 in the assay filed under Rattus norvegicus [1] was 7.55 µM; in assay [2], 97 µM; in assay [5], 0.82 µM; in assay [4] it was 31.3 µM. The Selectivity in assay [3] came out at 9.2.
In the case of `COc1ccccc1CNCCCCCCCCCNCCSSCCNCCCCCCCCCNCc1ccccc1OC`, the IC50 in the assay listed under Rattus norvegicus [1] amounted to 68 µM; in assay [2], 6 µM; in assay [4] it was 2.3 µM. For the same compound, the Selectivity in assay [3] was under 3.4.
For `COc1ccccc1CNCCC(=O)NCCCCCCCCNCCSSCCNCCCCCCCCNC(=O)CCNCc1ccccc1OC`, the IC50 result in the assay listed under Rattus norvegicus [6] was “Not Active”.
`COc1ccccc1CNCCCCCC(=O)NCCCCCCNCCSSCCNCCCCCCNC(=O)CCCCCNCc1ccccc1OC`: the IC50 result in the assay listed under Rattus norvegicus [6] is listed as “Not Active”.
Compound `COc1ccccc1CNCCCCCCCCCCCCN(C)CCSSCCN(C)CCCCCCCCCCCCNCc1ccccc1OC` registered an IC50 in the assay filed under Rattus norvegicus [1] of 46.9 µM. The Selectivity in assay [3] is under 2.35.
With `COc1ccccc1CNCCCCCCNCCCCCCNCCSSCCNCCCCCCNCCCCCCNCc1ccccc1OC.Cl.O`, the IC50 entry in the assay listed under Rattus norvegicus [6] is recorded as “Not Active”.
`Nc1ncnc2c1ncn2[C@@H]1O[C@H](CO)[C@@H](O)[C@H]1O` [ADENOSINE]: the IC50 in assay [2] was 2.5 µM; in assay [4], 1.8 µM.
As to `C1=CC(CNCCCCCCCCCCCCNCCSSCCNCCCCCCCCCCCCNCC2C=CC=N2)N=C1` (stereo unspecified), in the assay filed under Rattus norvegicus [1], it took 7.3 µM to reach half-maximal inhibition (IC50). For the same compound, in assay [3], the Selectivity is under 0.37.
For `COc1ccccc1CNCCCCCCCNCCSSCCNCCCCCCCNCc1ccccc1OC`, the half-inhibitory concentration (IC50) came to 55.2 µM in the assay listed under Rattus norvegicus [1], 41.3 µM in assay [2], 1.04 µM in assay [5] and 20.6 µM in assay [4]. In addition, in assay [3], the Selectivity worked out at 53.1.

(Values after ChEMBL document CHEMBL1124213, “Structure-activity relationships among benextramine-related tetraamine disulfides. Chain length effect on alpha-adrenoreceptor blocking activity” (J Med Chem, 1988).)
